Experimental findings from US20110207807A1, “NEW USE FOR HOMOISOFLAVONE OR A SALT THEREOF” (Catholic University Industry Academy Cooperation Foundation, priority 2008, published 2011) are described below.

The subject of one experiment is COX-2. The experiment is described as follows: COX-2 expression induced by UV in human keratinocytes (Western blot). Format: cell-based. Conditions: HaCaT cells, 1 μg/mL, UV 100 J/m^2, 16 hours, vs UV only (FIG. 2a). Here is the method:
In order to investigate the effect of homoisoflavanone on COX-2 expression induced by UV in human keratinocytes, HaCaT cells (5×10^5 cells) were inoculated on a 60-mm culture dish and cultured for 24 hours in DMEM containing 10% FBS.
Then, the cells were starved by culturing for 24 hours in DMEM containing 1% FBS. Then, after treating with homoisoflavanone at 1 μg/mL for 1 hour, the cells were washed 3 times with PBS and irradiated with UV at 100 J/m^2 to induce COX-2 expression. Immediately after the UV radiation, the cells were washed again with PBS and further cultured for 16 hours in DMEM containing 1% FBS, while treating with homoisoflavanone at the same concentration.
Thereafter, Western blotting was performed as follows in order to measure the degree of COX-2 expression in the cultured cells. The cells of each group were lysed using RIPA buffer containing 2 mM EDTA, 137 mM NaCl, 20 mM Tris-HCl (pH, 8.0), 1 mM sodium vanadate, 10 mM NaF, 1 mM phenylmethanesulfonyl fluoride (PMSF), 1% Triton X-100, 10% glycerol and a protease inhibitor cocktail, and subjected to SDS-PAGE electrophoresis on 10% acrylamide gel to separate proteins, which were then transferred to a nylon membrane and separated using goat anti-COX-2 antibody (SantaCruz, USA) and anti-goat IgG-horse radish peroxidase (HRP) conjugation antibody (1:10000, Zymed) as secondary antibody. […]
For orientation: In western blotting, separated proteins are transferred to a membrane and probed.

In the next experiment the test system is p38. The experiment is described as follows: UV-induced p38 phosphorylation in HaCaT cells (Western blot). In kind it is cell-based, human. Conditions: 1 μg/mL, UV (FIG. 2c). Here is the method:
(§1) In order to identify the intracellular factors affecting COX-2 expression that are affected by homoisoflavanone, Western blotting was carried out in the same manner as in Example 2-1 except for treating with homoisoflavanone at 1 μg/mL, irradiating UV for 45 minutes and using rabbit anti-p-cytosolic phospholipase A2 (cPLA2) antibody, rabbit anti-cPLA2 antibody, rabbit anti-ERK antibody, rabbit anti-p-ERK antibody, rabbit anti-p38 antibody or rabbit anti-p-p38 antibody and using anti-rabbit IgG-HRP conjugation antibody (Zymed) as secondary antibody. Positive control groups were treated with 1 μM SB203580 (A.G. Scientific, Inc.) as p38 inhibitor or 10 μM PD98059 (A.G. Scientific, Inc.) as MEK 1 inhibitor instead of homoisoflavanone.

For the next experiment, the system named is ERK. Description: UV-induced ERK phosphorylation in HaCaT cells (Western blot). Format: cell-based, human. Conditions: 1 μg/mL, UV (FIG. 2d). The method, then: as §1
A further experiment concerns IL-8. The experiment is described as follows: IL-8 mRNA expression induced by PMA and A23187 in HMC-1 (real-time PCR). Format: cell-based, human. Conditions: HMC-1, 2 μg/mL, 50 nM PMA + 1 μM A23187, 5 hours (FIG. 6d). The method, then:
In order to investigate the effect of homoisoflavanone on the release of pro-inflammatory cytokines induced by phorbol 12-myristate 13-acetate and A23187 in HMC-1, 5×10^5 HMC-1 cells were inoculated on a 60-mm culture dish and cultured in IMDM containing 10% FBS for 48 hours. Then, after treating with homoisoflavanone at 2 μg/mL, the cells were treated with 50 nM phorbol 12-myristate 13-acetate and 1 μM A23187 to induce release of pro-inflammatory cytokines, and then further cultured for 5 hours.
After extracting RNA from the cells of each test group using TRIzol, cDNA was prepared by carrying out PCR using the RNA as a template. Then, the mRNA expression of IL-6 and IL-8 was measured through real-time PCR using the cDNA as template and using commercially available IL-6 and IL-8 primers. The expression level of the pro-inflammatory cytokines was compared relative to the non-treated group.
Background: Quantitative PCR measures a nucleic acid by following its amplification.

Experiment [1] concerns HMC-1 cells. The experiment is described as follows: Degranulation induced by PMA and A23187 in HMC-1 (transmission electron microscopy). Format: cell-based, human. Conditions: HMC-1, 2 μg/mL, 50 nM PMA + 1 μM A23187, 6 hours (FIG. 8a). Here is the method: (§2) In order to investigate the effect of homoisoflavanone on COX-2 expression induced by phorbol 12-myristate 13-acetate and A23187 in HMC-1, 1×10^5 HMC-1 cells were inoculated on a 6-well plate and cultured in IMDM containing 10% FBS for 48 hours. Then, after treating with homoisoflavanone at 2 μg/mL for 1 hour, the cells were treated with 50 nM phorbol 12-myristate 13-acetate and 1 μM A23187 to induce COX-2 expression, and then further cultured for 6 hours. Then, the cells were fixed with 2.5% glutaraldehyde and frozen with liquid nitrogen. The cells were detached from the plate by applying heat, sliced into […], attached on grids, and observed with a transmission electron microscope (TEM).

The subject of experiment [2] is HMC-1 cells. The experiment is described as follows: Histamine release during degranulation of HMC-1 (histamine enzyme assay kit). Conditions: HMC-1, 2 μg/mL, 50 nM PMA + 1 μM A23187 (FIG. 8b). In kind it is cell-based, human. The method, then: as §2
In order to measure histamine released during the degranulation, the cell supernatant was collected and subjected to measurement using a histamine enzyme assay kit (Cayman, USA) according to the manufacturer's instructions. First, the collected supernatant was anti-histamine derivatized and reacted with histamine-AChE tracer. Then, after washing at least 5 times followed by visualization for 60-90 minutes, absorbance was measured at 414 nm.

The subject of another experiment is BALE/c mice. Description: Ear edema induced by UV radiation in animal model. Format: in vivo, mouse. Conditions: UV 7.5 kJ/m^2, 72 hours after UV (FIG. 10a). Here is the method: BALE/c mice were subdivided into a non-treated group (treated with acetone only without UV radiation), a control group (irradiated with UV at 7.5 kJ/m^2) and a test group (treated with 0.6 or 1 μg/10 μL homoisoflavanone and irradiated with UV at 7.5 kJ/m^2). Then, the effect on ear edema induced by UV radiation was investigated.
One hour before irradiating UV at 7.5 kJ/m^2, 1 μg/10 μL homoisoflavanone was applied on the front and rear parts of the ear, 5 μL each. Then, 72 hours after UV radiation, ear thickness was measured.

Consider `COc1ccc(CC2COc3cc(O)cc(O)c3C2=O)cc1O` (centres unmarked) [homoisoflavanone], for which, in the experiment on COX-2, the “COX-2 expression induced by UV” value is reported as “decreased”. Also, the “phosphorylation of p38” value in the experiment on p38 is recorded as “inhibited”. Also, the “phosphorylation of ERK” value in the experiment with ERK is recorded as “inhibited”. The “inhibition of release (mRNA expression) of IL-8” value in the experiment on IL-8 is reported as 50%. For the same compound, the “release of intracellular substances (degranulation, TEM)” value in the experiment with HMC-1 cells [1] is reported as “inhibited”. The “inhibition of release of histamine” value with HMC-1 cells [2] was determined as 72%. For the same compound, the “decrease in ear thickness” value with BALE/c mice (0.6 μg/ear topical) is recorded as 44%; in the experiment on BALE/c mice (1 μg/ear topical), 52%.
